Assay results from patent US8772498B2, “Alkylamine-substituted dicyanopyridine and amino acid ester prodrugs thereof” (Bayer Intellectual Property GmbH, priority 2009, dated 2014).
pEC50: −log10 of the molar value.

Key:
adenosine A1 receptor = target: T1, adenosine A1 receptor (Homo sapiens, UniProt P30542); assay: Indirect determination of adenosine agonism by gene expression (luciferase), A1 cells; type: cell-based; details: CHO cells, luciferase readout, 1 μM forskolin
T1 construct: expressed in transfected cells; host or cells: CHO (Chinese Hamster Ovary)
T1 sequence (P30542 1-326): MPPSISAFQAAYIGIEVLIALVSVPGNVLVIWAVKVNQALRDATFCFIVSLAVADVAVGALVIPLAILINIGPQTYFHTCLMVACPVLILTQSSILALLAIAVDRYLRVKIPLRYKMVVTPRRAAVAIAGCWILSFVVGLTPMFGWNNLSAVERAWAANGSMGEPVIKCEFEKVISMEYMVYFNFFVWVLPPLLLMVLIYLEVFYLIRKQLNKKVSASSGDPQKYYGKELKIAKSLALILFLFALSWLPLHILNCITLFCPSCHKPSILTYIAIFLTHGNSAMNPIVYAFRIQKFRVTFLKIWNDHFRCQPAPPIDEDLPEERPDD
Text: (§1) B-1. Indirect Determination of the Adenosine Agonism by Way of Gene Expression
(§2) Cells of the CHO (Chinese Hamster Ovary) permanent cell line are transfected stably with the cDNA for the adenosine receptor subtypes A1, A2a and A2b. The adenosine A1 receptors are coupled to the adenylate cyclase by way of G, proteins, while the adenosine A2a and A2b receptors are coupled by way of Gs proteins. In correspondence with this, the formation of cAMP in the cell is inhibited or stimulated, respectively. After that, expression of the luciferase is modulated by way of a cAMP-dependent promoter. The luciferase test is optimized, with the aim of high sensitivity and reproducibility, low variance and good suitability for implementation on a robot system, by varying several test parameters, such as cell density, duration of the growth phase and the test incubation, forskolin concentration and medium composition. The following test protocol is used for pharmacologically characterizing cells and for the robot-assisted substance screening:
(§3) The stock cultures are grown, at 37° C. and under 5% CO2, in DMEM/F12 medium containing 10% FCS (fetal calf serum) and in each case split 1:10 after 2-3 days. The test cultures are seeded in 384-well plates with 2000 cells per well and grown at 37° C. for approx. 48 hours. The medium is then replaced with a physiological sodium chloride solution (130 mM sodium chloride, 5 mM potassium chloride, 2 mM calcium chloride, 20 mM HEPES, 1 mM magnesium chloride hexahydrate, 5 mM sodium bicarbonate, pH 7.4). The substances to be tested, which are dissolved in DMSO, are pipetted into the test cultures (maximum final concentration of DMSO in the test mixture: 0.5%) in a dilution series of from 5×10^−11 M to 3×10^−6 M (final concentration). 10 minutes later, forskolin is added to the A1 cells and all the cultures are subsequently incubated at 37° C. for four hours. After that, 35 μl of a solution which is composed of 50% lysis reagent (30 mM disodium hydrogenphosphate, 10% glycerol, 3% TritonX100, 25 mM TrisHCl, 2 mM dithiotreitol (DTT), pH 7.8) and 50% luciferase substrate solution (2.5 mM ATP, 0.5 mM luciferin, 0.1 mM coenzyme A, 10 mM tricine, 1.35 mM magnesium sulfate, 15 mM DTT, pH 7.8) are added to the test cultures, which are shaken for approx. 1 minute and the luciferase activity is measured using a camera system. The ECK values are determined, i.e., the concentrations at which 50% of the luciferase answer is inhibited in the case of the A1 cell, and, respectively, 50% of the maximum stimulation with the corresponding substance is achieved in the case of the A2b and A2a cells.
(§4) Table 1 below lists the ECK values of representative working examples for the receptor stimulation on adenosine A1, A2a and A2b receptor subtypes: […]

adenosine A2a receptor = target: T2, adenosine A2a receptor (Homo sapiens, UniProt P29274); assay: Indirect determination of adenosine agonism by gene expression (luciferase), A2a cells; type: cell-based; details: CHO cells, luciferase readout
T2 construct: expressed in transfected cells; host or cells: CHO (Chinese Hamster Ovary)
Text: as §1, §2, §3, §4

adenosine A2b receptor = target: T3, adenosine A2b receptor (Homo sapiens, UniProt P29275); assay: Indirect determination of adenosine agonism by gene expression (luciferase), A2b cells; type: cell-based; details: CHO cells, luciferase readout
T3 construct: expressed in transfected cells; host or cells: CHO (Chinese Hamster Ovary)
T3 sequence (P29275 1-332): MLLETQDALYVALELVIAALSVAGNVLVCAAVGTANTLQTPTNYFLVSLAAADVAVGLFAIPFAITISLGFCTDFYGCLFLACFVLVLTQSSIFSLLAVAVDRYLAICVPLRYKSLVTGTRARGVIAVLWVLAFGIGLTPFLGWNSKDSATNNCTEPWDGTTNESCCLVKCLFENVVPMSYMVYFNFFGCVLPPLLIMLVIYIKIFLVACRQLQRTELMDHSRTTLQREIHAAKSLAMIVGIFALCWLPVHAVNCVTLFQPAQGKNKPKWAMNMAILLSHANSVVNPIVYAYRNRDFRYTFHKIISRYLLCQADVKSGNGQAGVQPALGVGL
Text: as §1, §2, §3, §4

[1] = test system: spontaneously hypertensive rats; assay: Measurement of blood pressure and heart rate on awake rats (telemetry); type: in vivo; details: maximum reduction in heart rate, oral administration of 3 mg/kg, awake SH rats
Protocol: B-5. Measurement of Blood Pressure and Heart Rate
Awake spontaneously hypertensive rats (SH-Ratten) carrying an internal transmitter capable of measuring permanently both blood pressure and heart rate (telemetric monitoring of hemodynamic parameters) and sitting in a cage fitted with motion sensors are orally administered test substances in various dosages. Blood pressure and heart rate and changes thereof, and also the movements and the activity of the animals are then recorded and evaluated for 24 hours.

mice (strain: CD1) = assay: Locomotor action in the treadmill experiment; type: in vivo; details: oral
Text: B-7. Test of Adenosine A1 Receptor Agonists on Locomotor Action in the Treadmill Experiment To determine the action of adenosine A1 receptor agonists on locomotor function, the running behavior of mice (strain: CD1) in treadmills (M. Weber et al., Psychopharmacology 2008, in print) is examined. To get the mice accustomed to voluntary use of the treadmill, 2-3 weeks prior to the start of the experiment the animals are isolated in cages with a treadmill and trained. 2 weeks prior to the start of the experiment, the movements of the mice in the treadmill are recorded by a photo cell using a computer, and various running parameters such as, for example, the distance run in a day, the individual distances covered, and also their distribution over the day are determined. According to their natural running behavior, the animals are randomized into groups (8-12 animals) (control group and 1—a plurality of substance groups). After the initial 2-week phase, the animals are treated orally with the substances to be tested. Here, single doses or else increasing dosages (for example 0.3-1-3-10-30 mg/kg) are administered. The substances are tested in two independent experiments. Between 2 experiments, there are at least 3 days where the animals are not administered any substances. The running behavior of the animals is observed and recorded for 24 hours after administration. Evaluation of the running intervals and the total distance covered takes place over a period of several hours during the main activity period of the mice. Effects are stated in percent of the control.

[2] = Determination of the solubility in 5% strength aqueous dextrose solution; type: physicochemical; details: result in words
Protocol: B-8. Determination of Solubility, Stability and Liberation Behavior a) Determination of the Solubility:
The test substance is suspended in 5% strength aqueous dextrose solution. This suspension is shaken at room temperature for 24 h. After ultracentrifugation at 224 000 g for 30 min, the supernatant is diluted with DMSO and analyzed by HPLC. A two-point calibration plot of the test compound in DMSO is used for quantification.
Agilent 1100 with DAD (G1315A), quat. pump (G1311A), autosampler CTC HTS PAL, degasser (G1322A) and column thermostat (G1316A); column: Phenomenex Gemini C18, 5 μm, 50 mm×2 mm; temperature: 40° C.; eluent A: water/phosphoric acid pH 2; eluent B: acetonitrile; flow rate: 0.7 ml/min; gradient: 0-0.5 min 85% A, 15% B; ramp: 0.5-3 min 10% A, 90% B; 3-3.5 min 10% A, 90% B; ramp: 3.5-4 min 85% A, 15% B; 4-5 min 85% A, 15% B.
Agilent 1100 with DAD (G1315A), quat. pump (G1311A), autosampler CTC HTS PAL, degasser (G1322A) and column thermostat (G1316A); column: VDSoptilab Kromasil 100 C18, 3.5 μm, 60 mm×2.1 mm; temperature: 30° C.; eluent A: water+5 ml perchloric acid/I; eluent B: acetonitrile; flow rate: 0.75 ml/min; gradient: 0-0.5 min 98% A, 2% B; ramp: 0.5-4.5 min 10% A, 90% B; 4.5-6 min 10% A, 90% B; ramp: 6.5-6.7 min 98% A, 2% B; 6.7-7.5 min 98% A, 2% B.

T2 sequence (P29274 whole entry): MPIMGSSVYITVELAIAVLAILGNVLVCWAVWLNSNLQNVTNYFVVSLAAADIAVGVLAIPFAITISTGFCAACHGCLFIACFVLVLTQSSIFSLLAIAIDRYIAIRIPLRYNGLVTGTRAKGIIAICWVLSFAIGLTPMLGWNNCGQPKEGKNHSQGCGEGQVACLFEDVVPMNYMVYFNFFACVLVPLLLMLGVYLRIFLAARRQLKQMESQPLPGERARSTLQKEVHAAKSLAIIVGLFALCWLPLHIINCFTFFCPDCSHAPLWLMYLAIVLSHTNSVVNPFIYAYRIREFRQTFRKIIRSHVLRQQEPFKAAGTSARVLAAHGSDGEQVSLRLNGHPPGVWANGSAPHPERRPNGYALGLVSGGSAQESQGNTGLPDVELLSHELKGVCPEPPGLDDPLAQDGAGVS

Row | pEC50 (adenosine A1 receptor) | pEC50 (adenosine A2a receptor) | pEC50 (adenosine A2b receptor) | Reduction of the total distance run by 1 mg/kg (mice (strain: CD1)) | Solubility of the active substance [2] | SMILES | Heart rate reduction [1]
1 | 10.00 | 6.17 | 7.10 | 0% | below the detection limit | N#Cc1c(SCc2csc(-c3ccc(Cl)cc3)n2)nc(N2CCCC2)c(C#N)c1-c1ccc(OCCO)cc1 [Example 1] | −20%
2 | – | – | – | – | below the detection limit | CNc1nc(SCc2csc(-c3ccc(Cl)cc3)n2)c(C#N)c(-c2ccc(OCCO)cc2)c1C#N [Example 2, 2-({(2-(4-Chlorophenyl)-1,3-thiazol-4-yl)methyl}sulfanyl)-4-(4-(2-hydroxyethoxy)phenyl)-6-(methylamino)pyridine-3,5-dicarbonitrile] | −45%
3 | 9.52 | 6.55 | 6.86 | – | – | CCNc1nc(SCc2csc(-c3ccc(Cl)cc3)n2)c(C#N)c(-c2ccc(OCCO)cc2)c1C#N [Example 3, 2-({(2-(4-Chlorophenyl)-1,3-thiazol-4-yl)methyl}sulfanyl)-6-(ethylamino)-4-(4-(2-hydroxy-ethoxy)phenyl)pyridine-3,5-dicarbonitrile] | –
4 | 9.30 | 6.50 | 6.82 | – | – | CCN(C)c1nc(SCc2csc(-c3ccc(Cl)cc3)n2)c(C#N)c(-c2ccc(OCCO)cc2)c1C#N [Example 5, 2-({(2-(4-Chlorophenyl)-1,3-thiazol-4-yl)methyl}sulfanyl)-6-(ethyl(methyl)amino)-4-(4-(2-hydroxyethoxy)phenyl)pyridine-3,5-dicarbonitrile] | –
5 | 9.15 | 6.55 | 6.64 | – | – | N#Cc1c(NC2CC2)nc(SCc2csc(-c3ccc(Cl)cc3)n2)c(C#N)c1-c1ccc(OCCO)cc1 [Example 9] | –
6 | – | – | – | 0% | – | N#Cc1c(SCc2csc(-c3ccc(Cl)cc3)n2)nc(N2CCCCC2)c(C#N)c1-c1ccc(OCCO)cc1 [Example 13] | –
7 | 9.05 | 6.13 | – | 7.5% | – | COCCN(C)c1nc(SCc2csc(-c3ccc(Cl)cc3)n2)c(C#N)c(-c2ccc(OCCO)cc2)c1C#N [Example 21, 2-({(2-(4-chlorophenyl)-1,3-thiazol-4-yl)methyl}sulfanyl)-4-(4-(2-hydroxyethoxy)phenyl)-6-((2-methoxyethyl)(methyl)amino)pyridine-3,5-dicarbonitrile] | –
8 | 9.22 | 6.54 | 6.17 | – | – | COC1CCN(c2nc(SCc3csc(-c4ccc(Cl)cc4)n3)c(C#N)c(-c3ccc(OCCO)cc3)c2C#N)CC1 [Example 24, 2-({(2-(4-chlorophenyl)-1,3-thiazol-4-yl)methyl}sulfanyl)-4-(4-(2-hydroxyethoxy)phenyl)-6-(4-methoxypiperidin-1-yl)pyridine-3,5-dicarbonitrile] | –
9 | 9.30 | – | 6.00 | – | – | N#Cc1c(SCc2csc(-c3ccc(Cl)cc3)n2)nc(N2CCC(F)(F)C2)c(C#N)c1-c1ccc(OCCO)cc1 [Example 26, 2-({(2-(4-Chlorophenyl)-1,3-thiazol-4-yl)methyl}sulfanyl)-6-(3,3-difluoropyrrolidin-1-yl)-4-(4-(2-hydroxyethoxy)phenyl)pyridine-3,5-dicarbonitrile] | –
10 | 10.30 | 7.57 | 6.05 | 24% | – | N#Cc1c(NCCF)nc(SCc2csc(-c3ccc(Cl)cc3)n2)c(C#N)c1-c1ccc(OCCO)cc1 [Example 33, 2-({(2-(4-Chlorophenyl)-1,3-thiazol-4-yl)methyl}sulfanyl)-6-((2-fluoroethyl)amino)-4-(4-(2-hydroxyethoxy)phenyl)pyridine-3,5-dicarbonitrile] | –
